# Results filed as inconclusive are left out.
# Target: Virion infectivity factor (Human immunodeficiency virus type 1 group M subtype B (isolate BH10)) + Virion infectivity factor (Human immunodeficiency virus type 1 group M subtype B (isolate BRU/LAI)) + Virion infectivity factor (Human immunodeficiency virus type 1 group M subtype B (isolate PCV12)) + Virion infectivity factor (Human immunodeficiency virus type 1 group M subtype B (isolate HXB2)) + DNA dC->dU-editing enzyme APOBEC-3G (Homo sapiens) (UniProt P69720+P69721+P69722+P69723+Q9HC16)
# Assay: inhibitors of Vif binding to APOBEC3G peptide, primary screen, biochemical, TR-FRET, GST-Vif 1-94, biotin-A3G peptide, dose response retest (AID 1117319);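 note: Vif residues 1-94 fused to GST binding biotinylated APOBEC3G peptide 110-148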
row,SMILES,IC50 [µM]
1,COC(=O)c1ccc(COc2ccc(/C=N/Nc3cccc(C(=O)O)c3)cc2)cc1,63.2
2,COc1ccc(Cl)cc1NC(=O)CCS(=O)(=O)c1ccc(Br)cc1,8.09
3,CCOC(=O)c1nn(-c2ccc(Cl)cc2Cl)c(=N)c(C#N)c1C,12.7
4,O=C1OC(c2ccc(F)cc2)=C/C1=C\c1ccc([N+](=O)[O-])o1,8.61
5,COc1cccc(NC(=O)CSc2nnc(-c3ccco3)c(-c3ccco3)n2)c1,10.2
6,COc1ccccc1NC(=O)COC(=O)c1cc2c(s1)CCC2,17.6
7,COc1ccc(OC)c(NC(=O)CCN2CCC(C)CC2)c1,25.4
8,CN1C(=O)/C(=C/C=C/c2ccco2)C(=O)NC1=S,13.4
9,CCN(CC)c1ccc(N=Cc2c(O)n(CCc3ccc(OC)c(OC)c3)c(=O)[nH]c2=O)cc1,44.1
10,O=[n+]1c2c(n([O-])c3cc(F)c(F)cc31)CCCC2,5.33
11,O=C(NCCO)c1ccc2nc(-c3ccco3)c(-c3ccco3)nc2c1,0.88
12,Cc1cccc(N(C(=O)Cn2nnc3ccccc32)C(C(=O)NCc2ccco2)c2ccncc2)c1C (stereo not given),4.66
13,O=C(COC(=O)/C=C/c1ccco1)Nc1ncc(C(F)(F)F)cc1Cl,12.7
14,O=C1/C(=C/c2ccco2)SC(=S)N1c1cccnc1,1.49
15,CCCCn1cnc2cc(NCc3ccncc3)ccc21,35.3
16,COC1=CC(=O)C(C2CC(=O)c3c(O)cc(O)cc3O2)=CC1=O (stereo not given),15
17,COC(=O)/C(=N/Nc1ccccc1C)N1CCCc2ccccc21,1.9
18,O=C1/C(=C/c2ccco2)SC(=S)N1C1CCS(=O)(=O)C1 (stereo not given),3.88
19,CC(C)N1C(=O)/C(=C/C=C/c2ccco2)C(=O)N(Cc2ccco2)C1=O,2.19
20,CC1=C/C(=N\OS(=O)(=O)c2ccccc2)C=CC1=O,16.7
21,CN(CCO)c1cc(Sc2nc3ccccc3s2)c2nonc2c1[N+](=O)[O-],42.6
22,Cc1cccc(NC(=O)CSc2nnc(-c3ccco3)c(-c3ccco3)n2)c1C,4.3
23,CC1CCCCC1NC(=O)COC(=O)c1c2c(nc3ccccc13)/C(=C/c1ccco1)CC2 (stereo not given),1.33
24,CN(C)c1ccc2cc(S(=O)(=O)O)cc(O)c2c1,10.2
25,CC[n+]1c(/C=C2/C=C(C)CC(C)(C)C2)sc2ccc(OC)cc21,21.7
26,Cc1ccc(N(CC(=O)NCCSCc2ccco2)S(=O)(=O)c2ccc(F)cc2)cc1,10.9
27,COc1ccc(N2CCN(C(=O)c3c(-c4ccccc4)noc3C)CC2)cc1,31.1
28,Cc1sc2ncnc(SCc3ccco3)c2c1C,28.2

row,SMILES,IC50 [µM]
1,CCOc1cccc(=O)c2c(C)n(Cc3ccco3)c(C)c12,0.45
2,COc1cccc(C=Nc2cc(C(C)C)c(O)cc2C)c1O,34.2
3,O=C(Nc1nc(-c2ccco2)c(-c2ccco2)s1)c1ccco1,32.2
4,N=C1/C(=C/c2ccc(Br)o2)C(=O)N=C2SC(CC(=O)N3CCCC3)=NN12,27.8
5,Cc1cc(-c2ccco2)n(-c2ccccc2)n1,50.4
6,O=C(Cc1cccs1)N/N=C/C=C/c1ccco1,3.68
7,CN=c1scc(-c2ccco2)n1/N=C/c1ccc(O)c(O)c1,9.26
8,Cc1cc2c(=Cc3ccc(N(C)C)cc3)c3ccccc3n2[n+]1C,16.9
9,COc1cc(-c2cccs2)cc(=O)c2c(C)oc(C)c12,3.55
10,CCN1C(=O)/C(=C\c2ccc([N+](=O)[O-])s2)C(=O)NC1=S,1.53
11,Oc1ccc(NCc2cccc(OCc3ccccc3)c2)cc1,2.14
12,CCOC(=O)c1c(C)oc2c1c(C=NCc1ccccn1)c(O)c1ccccc12,1.86
13,CCn1c(SC(C)C(=O)O)nc2sc3c(c2c1=O)CCC3 (stereo not given),8.89
14,Cc1cccc(N2C(=O)/C(=C/c3ccc(CN(CCC#N)S(C)(=O)=O)o3)C(=O)NC2=S)c1,22.9
15,O=C(O)CCCCC1SCC2NC(=O)NC21 (stereo not given),0.27
16,Cc1c(C(=O)N2CCN(c3ccccc3F)CC2)sc2nc(-c3ccccc3)cn12,93
17,O=C1CC(c2ccco2)CC(O)=C1C=Nc1cc(Cl)ccc1O (stereo not given),4.47
18,CC(Cc1c[nH]c2ccccc12)C(=O)NCc1ccco1 (stereo not given),33
19,CC1C/C(=C/c2ccco2)C(=O)/C(=C/c2ccco2)C1 (stereo not given),1.89
20,CCCC1=NN2C(=N)/C(=C\c3ccc(SCc4ccco4)o3)C(=O)N=C2S1,8.14
21,Cc1ccc(Cl)cc1N1CCN(C(=O)COc2ccc3c(c2)CCC3)CC1,45.4
22,O=C(C1CCCN1S(=O)(=O)c1cccc2cccnc12)N1CCN(c2ccccc2)CC1 (stereo not given),40.2
23,CCOC(=O)C1=C(COC(=O)/C=C/c2ccco2)NC(=O)NC1C (stereo not given),10.9
24,CC(C)(Oc1ccc(Cl)cc1)C(=O)NCc1ccco1,43.1
25,C=C(C)C(=O)Nc1cccc(C2=NOC3(C2)C[C@@H](C(N)=O)N(C(=O)/C=C/CC)C3)c1 (stereo not given in full),3.32
26,CCc1ccc(CC)c(S(=O)(=O)Nc2ccc(C(=O)O)c(O)c2)c1,35.3
27,C=CCN=c1scc(-c2ccco2)n1/N=C/c1ccc(O)c(O)c1O,1.38

# From PubChem BioAssay AID1117319 (Southern Research Institute, 2015)
